# Tests used:
# S. aureus [1] = experiment: Disk diffusion antibacterial test; format: cell-based, Staphylococcus aureus; design: key to Inhibition zone (mm) S. aureus: —: inactive at concentration 50 mM; details: for Sensitivity of S. aureus to compound: there called agar dilution method; for Inhibition zone (mm) S. aureus: disc diffusion test, concentration 50 mM
# Description: (§1) Antibacterial effects of spiro[indeno[2,1-c]pyridazine-9,4′-pyran]-3′,4-dicarbonitrile derivatives 5a–j were evaluated in vitro by using disk diffusion method against Gram-positive (S. aureus) and Gram negative (E. coli). The diameter of inhibition zone correlates to the sensitivity of a bacterium to an antibacterial agent. […] E. coli was resistant against all compounds tested (Table 2). Tetracycline and DMSO were used as positive control and negative control respectively. Next, the active compounds were analysed using MIC assay to determine the lowest concentration for inhibition. […] It seems due to the difference in structure of bacterial cell wall (i.e., the presence of outer membrane with lipid, lipopolysaccharide, and lipoprotein content in Gram negative bacteria), E. coli was resistant against the related synthetic compounds.
# (§2) Antibacterial activity of the prepared synthetic compounds against the Gram-negative bacteria (E. coli; ATCC: 15922) and the Gram-positive bacteria (S. aureus; PTCC: 1112, International no. ATCC6538P) were examined by disk diffusion assay. Bacterial cultures were obtained from Persian Type Culture Collection, Tehran, Iran (PTCC). Isolated pure colonies from fresh grown bacteria were transferred from the plates into sterile normal saline solution and it was vortexed to form bacterial homogenous suspensions. The turbidity was then adjusted to 0.5 McFarland standard units, and the suspensions were poured over Mueller–Hinton agar (MHA) plates. Sterile filter paper disks were placed over these plates. The sterile disks were impregnated with the tested compounds. Positive control (tetracycline) and negative control ([…]) were used. To determine MIC, the concentrations of tested substance were prepared within the range from 30–5 mM. Incubate in incubator at 37 °C in 24 h for bacteria (Table 2).
# E. coli = experiment: Disk diffusion antibacterial test; format: cell-based, Escherichia coli; design: key: —: inactive at concentration 50 mM; details: disc diffusion test, concentration 50 mM
# Description: as §1, §2
# S. aureus [2] = experiment: MIC determination; format: cell-based; details: Staphylococcus aureus; read-out: MICs (mM) S. aureus
# Description: as §1, §2
# A375 cells = experiment: MTT cytotoxicity assay; format: cell-based; details: Homo sapiens, A-375, 48 h
# Description: (§3) At first, in order to compare anti-cancer properties, the synthesized compounds 5a–j were evaluated against A549 cells, MCF-7 cells, A375 cells, PC3 cells, LNCaP cells and HDF cells lines using the MTT colorimetric assay. The activity is expressed as 50% growth inhibitory concentration (IC50) values at 48 h. We used DMSO (1%) as negative control and Etoposide as positive control.
# (§4) Human non-small-cell lung cancer A549 cells, human breast cancer MCF-7 cells, human malignant melanoma cells (A375), human prostate cancer cells (PC3 cells, LNCaP cells) and normal cells HDF (human dermal fibroblast) were received from Pasture Institute, Tehran, Iran. MCF-7 cells were grown in RPMI 1640 medium, A549 cells, A375 cells, PC3 cells, LNCaP cells and HDF cells were grown in DMEM medium. All media contain 10% fetal bovine serum (FBS), penicillin G, streptomycin 100 μg mL^−1 and 1% L-glutamine. The cells were cultured and incubated under humidified 5% CO2 atmosphere at 37 °C.
# (§5) The effect of compounds treatment on the viability of cancer cell lines was measured by (3-(4,5-dimethylthiazol-2-yl)-2,5-diphenyl tetrazolium bromide or MTT) assay (MTT assay kit, Bio IDEA, CatNo: BI1017, Iran) based on the ability of live cells to cleave the tetrazolium ring to a molecule that absorb at […] as per the manufacturer's instructions.[33] Etoposide (was kindly provided by Dr A. Foroumadi, Tehran medical Science University, Iran) and dimethyl sulfoxide (or DMSO) was used as positive and negative controls, respectively.[34] Briefly, cells were plated in 96-well culture plates (5 × 10^3 cells per well). After 24 h incubation, the cells were treated with different concentrations of the compounds. After 48 h at 37 °C, the medium was removed and 100 μL of MTT reagent (1 mg mL^−1) was added to each well, and cells were further incubated at 37 °C for 4 h. The MTT solution was removed, 50 μL of DMSO was added to each well to dissolve formazan crystals, and the plates were gently shaken for 10 minutes, followed by reading with an ELISA plate reader (BiotekELx 800, USA). The 50% inhibition concentration (IC50) was defined as the concentration that inhibited cell proliferation by 50% when compared to DMSO treated cells (as negative control).
# A549 cells = experiment: MTT cytotoxicity assay; format: cell-based; details: Homo sapiens, 48 h
# Description: as §3, §4, §5
# HDF cells = experiment: MTT cytotoxicity assay; format: cell-based; details: 48 h, normal cells (human dermal fibroblast)
# Description: as §3, §4, §5
# LNCaP cells = experiment: MTT cytotoxicity assay; format: cell-based; details: Homo sapiens, 48 h
# Description: as §3, §4, §5
# MCF-7 cells = experiment: MTT cytotoxicity assay; format: cell-based; details: Homo sapiens, MCF7, 48 h
# Description: as §3, §4, §5
# PC3 cells = experiment: MTT cytotoxicity assay; format: cell-based; details: Homo sapiens, PC-3, 48 h
# Description: as §3, §4, §5
SMILES,Sensitivity of S. aureus to compound (S. aureus [1]),Inhibition zone (mm) E. coli (E. coli),MIC (S. aureus [2]) [mM],IC50 (A375 cells) [µM],IC50 (A549 cells) [µM],IC50 (HDF cells) [µM],IC50 (LNCaP cells) [µM],IC50 (MCF-7 cells) [µM],IC50 (PC3 cells) [µM],melting point [°C],Inhibition zone (mm) S. aureus (S. aureus [1])
"N#CC1=C(N)Oc2[nH]c(=O)[nH]c(=O)c2C12c1ccccc1-c1c2n[nH]c(=O)c1C#N (centres unmarked) [5b, 7′-Amino-2′,3,4′-trioxo-1′,2,2′,3,3′,4′-hexahydrospiro[indeno[2,1-c]pyridazine-9,5′-pyrano[2,3-d]pyrimidine]-4,6′-dicarbonitrile]",sensitive,—,5,> 100,> 100,> 100,> 100,> 100,> 100,322 to 324,
"N#CC1=C(N)Oc2[nH]c(=S)[nH]c(=O)c2C12c1ccccc1-c1c2n[nH]c(=O)c1C#N (centres unmarked) [5c, 7′-Amino-3,4′-dioxo-2′-thioxo-1′,2,2′,3,3′,4′-hexahydrospiro[indeno[2,1-c]pyridazine-9,5′-pyrano[2,3-d]pyrimidine]-4,6′-dicarbonitrile]",sensitive,—,50,> 100,> 100,> 100,> 100,> 100,> 100,305 to 307,
"CC1(C)CC(=O)C2=C(C1)OC(N)=C(C#N)C21c2ccccc2-c2c1n[nH]c(=O)c2C#N (centres unmarked) [5d, 2-Amino-7,7-dimethyl-3′,5-dioxo-2′,3′,5,6,7,8-hexahydrospiro[chromene-4,9′-indeno[2,1-c]pyridazine]-3,4′-dicarbonitrile]",,—,,> 100,> 100,> 100,> 100,> 100,> 100,315 to 318,—
"Cc1nn(-c2ccccc2)c2c1C1(C(C#N)=C(N)O2)c2ccccc2-c2c1n[nH]c(=O)c2C#N (centres unmarked) [5e, 6′-Amino-3′-methyl-3-oxo-1′-phenyl-2,3-dihydro-1′H-spiro[indeno[2,1-c]pyridazine-9,4′-pyrano[2,3-c]pyrazole]-4,5′-dicarbonitrile]",sensitive,—,10,> 100,> 100,> 100,> 100,> 100,> 100,,
"Cc1n[nH]c2c1C1(C(C#N)=C(N)O2)c2ccccc2-c2c1n[nH]c(=O)c2C#N (centres unmarked) [5f, 6′-Amino-3′-methyl-3-oxo-2,3-dihydro-1′H-spiro[indeno[2,1-c]pyridazine-9,4′-pyrano[2,3-c]pyrazole]-4,5′-dicarbonitrile]",sensitive,—,5,> 100,> 100,> 100,> 100,> 100,> 100,,
"Cc1nn(-c2cccc(Cl)c2)c2c1C1(C(C#N)=C(N)O2)c2ccccc2-c2c1n[nH]c(=O)c2C#N (centres unmarked) [5g, 6′-Amino-1′-(3-chlorophenyl)-3′-methyl-3-oxo-2,3-dihydro-1′H-spiro[indeno[2,1-c]pyridazine-9,4′-pyrano[2,3-c]pyrazole]-4,5′-dicarbonitrile]",sensitive,—,5,> 100,> 100,> 100,> 100,> 100,> 100,,
"COC(=O)c1nn(-c2ccccc2)c2c1C1(C(C#N)=C(N)O2)c2ccccc2-c2c1n[nH]c(=O)c2C#N (centres unmarked) [5h, Methyl 6′-amino-4,5′-dicyano-3-oxo-1′-phenyl-2,3-dihydro-1′H-spiro[indeno[2,1-c]pyridazine-9,4′-pyrano[2,3-c]pyrazole]-3′-carboxylate]",,—,,> 100,> 100,> 100,> 100,> 100,> 100,,—
"N#CC1=C(N)Oc2c(c(=O)oc3ccccc23)C12c1ccccc1-c1c2n[nH]c(=O)c1C#N (centres unmarked) [5i, 2′-Amino-3,5′-dioxo-2,3-dihydro-5′H-spiro[indeno[2,1-c]pyridazine-9,4′-pyrano[3,2-c]chromene]-3′,4-dicarbonitrile]",sensitive,—,5,> 100,> 100,> 100,> 100,> 100,> 100,308 to 310,
"N#CC1=C(N)OC2=C(C(=O)c3ccccc32)C12c1ccccc1-c1c2n[nH]c(=O)c1C#N (centres unmarked) [5j, 2-Amino-3′,5-dioxo-2′,3′-dihydro-5H-spiro[indeno[1,2-b]pyran-4,9′-indeno[2,1-c]pyridazine]-3,4′-dicarbonitrile]",,—,,> 100,> 100,> 100,> 100,> 100,> 100,298 to 300,—
"COc1cc([C@@H]2c3cc4c(cc3[C@@H](O[C@@H]3O[C@@H]5CO[C@@H](C)O[C@H]5[C@H](O)[C@H]3O)[C@H]3COC(=O)[C@H]23)OCO4)cc(OC)c1O [Etoposide, reference compound]",,,,25.31 ± 0.018,60 ± 0.015,> 100,90 ± 0.031,30 ± 0.011,40 ± 0.062,,

# — paper PMC9070039, “Synthesis and evaluation of antimicrobial activity, cytotoxic and pro-apoptotic effects of novel spiro-4H-pyran derivatives” (RSC Advances, 2019)
